We go through five molecules from US5445956A, “Recombinant soluble epoxide hydrolase” (The Regents of the University of California, priority 1993, dated 1995).

The target in series [1] is T1, human sEH (Homo sapiens, UniProt P34913).
T1 construct: made in house; host or cells: Spodoptera frugiperda Sf21 cells infected with recombinant AcNPV (AchsEH1)
T1 sequence (P34913 1-555): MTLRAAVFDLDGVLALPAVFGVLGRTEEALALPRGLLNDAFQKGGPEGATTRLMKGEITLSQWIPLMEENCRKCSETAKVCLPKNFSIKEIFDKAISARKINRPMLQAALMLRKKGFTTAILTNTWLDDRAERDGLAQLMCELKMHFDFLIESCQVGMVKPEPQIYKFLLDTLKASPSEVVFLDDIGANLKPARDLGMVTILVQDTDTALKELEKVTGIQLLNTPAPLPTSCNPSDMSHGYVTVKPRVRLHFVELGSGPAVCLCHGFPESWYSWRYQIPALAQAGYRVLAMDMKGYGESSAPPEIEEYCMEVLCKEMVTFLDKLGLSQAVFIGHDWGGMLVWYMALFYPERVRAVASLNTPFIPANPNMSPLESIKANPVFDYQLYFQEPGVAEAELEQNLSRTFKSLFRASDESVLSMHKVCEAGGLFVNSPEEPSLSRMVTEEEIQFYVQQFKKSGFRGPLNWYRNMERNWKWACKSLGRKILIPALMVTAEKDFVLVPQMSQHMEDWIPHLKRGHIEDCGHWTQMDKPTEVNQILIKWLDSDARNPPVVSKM
Nature of the series: Human soluble EH activity in lysates of Sf21 cells infected with recombinant AcNPV, TSO and CSO as substrates. In kind it is biochemical. To be noted: for inhibition at 62.5 µM: preincubation of lysates from human sEH expressing cells with inhibitor (62.5 μM, Table II), read-out: inhibition of the hydrolysis of TSO and CSO. An excerpt:
To obtain recombinant baculovirus, Spodoptera frugiperda 21 (Sf21) insect cells are cotransfected with plasmid pAcUW21-hsEH plus linearized DNA (AcRP6-SC) of Autographa californica nuclear polyhedrosis virus (AcNPV). […] The resulting virus plaque is purified as described by O'Reilly, D. R., et al., in Baculovirus Expresssion Vectors. A Labortory Manual, p. […] Cultures of Sf21 cells are then infected with recombinant AcNPV containing the human sEH sequence or with control AcNPV. Uninfected cultures are also maintained. Cultures are maintained 4 to 5 days post infection before harvesting proteins. For extraction of proteins, cells are washed (three times in 90 mM NaHPO4 pH7.4) then lysed (in 90 mM NaHPO4 pH7.4, 1 mM EDTA, 1 mM phenylmethylsulfonyl fluoride) by 3 cycles of freeze thawing (dry ice ethanol and 37° C. H2 O baths).
A., and B. D. Hammock in Arch. […] Biochem. Biophys.

The next series relates to sEH. The note with it: inhibits only very weakly other enzymes that catalyze hydrolysis or conjugation of epoxides; Mullin and Hammock 1982, Prestwich 1985; cited from earlier work.
The test system of series [2] is sEH of various species (mouse, rabbit, primate). The note with it: Dietze et al. 1991, 1993, read-out: I50; cited from earlier work.
For series [3], the system named is monkey and murine microsomal EH. The note with it: at 2 mM; cited from earlier work.
A further series addresses T2, murine sEH (Mus musculus, UniProt P34914).
T2 construct: A primer pair to amplify the entire coding region is; expressed in transfected cells; host or cells: COS-7
T2 sequence (P34914 1-554): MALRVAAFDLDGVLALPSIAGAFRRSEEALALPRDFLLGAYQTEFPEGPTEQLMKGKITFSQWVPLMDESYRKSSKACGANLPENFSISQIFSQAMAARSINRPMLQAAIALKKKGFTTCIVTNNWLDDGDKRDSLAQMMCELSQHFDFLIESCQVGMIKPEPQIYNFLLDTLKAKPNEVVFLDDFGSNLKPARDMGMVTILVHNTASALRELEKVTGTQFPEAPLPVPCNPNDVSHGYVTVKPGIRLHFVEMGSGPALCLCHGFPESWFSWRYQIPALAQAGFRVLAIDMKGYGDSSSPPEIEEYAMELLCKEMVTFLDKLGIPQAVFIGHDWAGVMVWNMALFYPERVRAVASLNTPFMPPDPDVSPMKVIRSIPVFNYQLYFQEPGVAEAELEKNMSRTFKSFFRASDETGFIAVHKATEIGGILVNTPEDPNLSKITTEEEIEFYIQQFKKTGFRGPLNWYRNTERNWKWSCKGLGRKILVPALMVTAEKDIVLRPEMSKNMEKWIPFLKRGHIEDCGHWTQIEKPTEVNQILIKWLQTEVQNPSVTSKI
Nature of the series: Epoxide hydrolase activity (TSO partition assay) in extracts of COS-7 cells transfected with murine sEH expression vector. In kind it is biochemical. To be noted: psEH-pJ3omega transfected COS-7 cells + t-ENPG 1 mM final concentration. The protocol:
(§1) To detect soluble epoxide hydrolase activity or to monitor its relative purity, one uses the partition assay of Wixtrom, R. N., and B. D. Hammock in Biochemical Pharmacoloyt and Toxicology (Zakim, D., and Vessey, D. A., Eds), Vol. 1, pp. 1-93. Wiley, New York ([…]) with [^3 H]-trans-stilbene oxide ([^3 H]TSO) as substrate, incorporated herein by reference. In brief this assay entails: coincubating the enzyme with radiolabled substrate that is much more soluble in organic than aqueous solutions. Next, the enzyme substrate is extracted with organic solvent such that the substrate partitions into the organic phase but the more polar and water-soluble product (a vicinal diol) partitions to the aqueous phase. An aliquot of the aqueous phase is then analyzed for concentration of product by quantification of radioactivity. The substrate [^3 H]TSO is prepare by the method described by Gill, S. S., et al., in Anal. Biochem., 131:273-282 (1993) incorporated herein by reference.
cos-7 cells are grown as a monolayer culture in Dulbecco's modified Eagle's medium (ICN) containing 10% fetal calf serum (ICN) plus penicillin G (100 U/ml) and streptomycin sulfate (100 ug/ml). Cell transfections are mediated by lipofectin (Gibco) according to standard protocol. Approximately 1×10^6 cells are transfected in 100 mm dishes with 5 ug of murine sEH-pJ3omega, 5 ug pJ3omega vector control or a mock transfection control containing lipofectin only (60 ul/plate). All transfections except the mock transfection control contain 2.5 ug of the beta-galactosidase plasmid, pSV-beta-Gal (Promega) can be used as an internal positive control. After 36 hours, cells are washed 5 times with PBS and collected by scraping into 1.5 ml centrifuge tubes. The cells are then pelleted (12 k×g, 4° C., 30 seconds), resuspended in 150 ul of lysis buffer (40 mM tris, pH 8.0, 150 mM NaCl, 0.2 mM PMSF, 1 mM EDTA) and lysed by 3 cycles of freezing and thawing. The cells are again centrifuged and the supernatant used for enzyme assays and protein determination. […]

The next series relates to soluble EH. To be noted: at 8 uM; cited from earlier work.
In series [4] the test system is basal sEH activity of COS-7 cells. Nature of the series: Basal epoxide hydrolase activity (TSO) in extracts of vector-control or mock transfected COS-7 cells. It is filed as biochemical, monkey. As to the method: as §1
cos-7 cells are grown as a monolayer culture in Dulbecco's modified Eagle's medium (ICN) containing 10% fetal calf serum (ICN) plus penicillin G (100 U/ml) and streptomycin sulfate (100 ug/ml). Cell transfections are mediated by lipofectin (Gibco) according to standard protocol. Approximately 1×10^6 cells are transfected in 100 mm dishes with 5 ug of murine sEH-pJ3omega, 5 ug pJ3omega vector control or a mock transfection control containing lipofectin only (60 ul/plate). All transfections except the mock transfection control contain 2.5 ug of the beta-galactosidase plasmid, pSV-beta-Gal (Promega) can be used as an internal positive control. After 36 hours, cells are washed 5 times with PBS and collected by scraping into 1.5 ml centrifuge tubes. The cells are then pelleted (12 k×g, 4° C., 30 seconds), resuspended in 150 ul of lysis buffer (40 mM tris, pH 8.0, 150 mM NaCl, 0.2 mM PMSF, 1 mM EDTA) and lysed by 3 cycles of freezing and thawing. The cells are again centrifuged and the supernatant used for enzyme assays and protein determination. Beta-galactosidase is assayed as described (Sambrook et al., 1989). sEH activity is assayed using TSO as described by the method of Wixtrom, R. N. and B. D. Hammock in Biochemical Pharmacology and Toxicology, (Zakim, D. and Vessey, D. A., ed.) 1:1-93 (1985).
The functional analysis of recombinant murine sEH expressed in COS-7 cells was performed following the methods described above. […] Transfected cells expressed approximately the same level of sEH activity as did mock transfected cells when 1 mM t-ENPG was included in the enzyme assay. […] The differences in specific activity among the experiments in Table I are most likely due to differences in cell density during transfections.
As well as detecting the transiently expressed sEH, the anti-rhesus-sEH antiserum also detected a protein that migrates identically with mouse sEH.

Series [5] concerns the target T1, human sEH. Nature of the series: Heat lability of expressed human sEH. It is filed as biochemical. To be noted: enzyme assay mixture preincubated 15 min at 65° C.
The mark [6] stands for this setting: AchsEH1 infected Sf21 lysate, inhibitor 62.5 μM, ND = no activity detected where 0.65 was distinguishable above background.

With `O=C(c1ccccc1)C1OC1c1ccc(F)cc1` (centres unmarked) [4FCO, 4-fluorochalcone oxide], at human sEH [1], the inhibition at 62.5 µM came out at 100%. Besides, the “selectivity for sEH” value in the series with sEH was “very selective inhibitor of sEH”.

As for `O=[N+]([O-])c1ccc([C@H]2O[C@@H]2CO)cc1` [RRNPG, (2R,3R)-3-(4-nitrophenyl) glycidol], the “specific activity remaining with inhibitor, substrate CSO” value on human sEH [1] (setting [6]) is 19.8 (1.26) nmoles TSO or CSO converted to. In addition, the inhibition at 62.5 µM on human sEH [1] turned out to be 39%. In addition, in series [2], the IC50 was above 690 µM.

With `O=[N+]([O-])c1ccc([C@@H]2O[C@H]2CO)cc1` [SSNPG, (2S,3S)-3-(4-nitrophenyl) glycidol], on human sEH [1] (setting [6]), the “specific activity remaining with inhibitor, substrate TSO” value is given as 5.73 (0.56) nmoles TSO or CSO converted to. Besides, at human sEH [1], the inhibition at 62.5 µM is 73%. Further, the IC50 in series [2] is 1 to 10 µM.

Take `O=[N+]([O-])c1ccc([C@@H]2O[C@H]2CO)cc1` [t-ENPG, trans2(S),3(S)-epoxy-3-(4-nitrophenyl) glycidol]: the “inhibition of microsomal EH” value in series [3] is recorded as at most 23%. Further, the “Epoxide hydrolase activity (±S.D.) remaining with inhibitor” value was determined as 76 ± 20 pmol·min/mg on murine sEH (Experiment 1); 109 ± 4 pmol·min/mg on murine sEH (Experiment 2); 134 ± 6 pmol·min/mg at murine sEH (Experiment 3); 74 ± 6 pmol·min/mg in series [4] (Experiment 1, mock transfected COS-7 cells + t-ENPG 1 mM); 69 ± 6 pmol·min/mg in series [4] (Experiment 1, pJ3omega vector control transfected COS-7 cells + t-ENPG 1 mM); 106 ± 5 pmol·min/mg in series [4] (Experiment 2, mock transfected COS-7 cells + t-ENPG 1 mM). The “Epoxide hydrolase activity (±S.D.) remaining with inhibitor” value in series [4] (Experiment 2, pJ3omega vector control transfected COS-7 cells + t-ENPG 1 mM) came out at 97 ± 4 pmol·min/mg; in series [4] (Experiment 3, mock transfected COS-7 cells + t-ENPG 1 mM) it was 88 ± 2 pmol·min/mg; in series [4] (Experiment 3, pJ3omega vector control transfected COS-7 cells + t-ENPG 1 mM), 113 ± 8 pmol·min/mg. The “inhibition of soluble EH” value with soluble EH is at least 50%.

B1: expressed human sEH: recombinant human soluble epoxide hydrolase (Seq ID No.2) expressed in Sf21 cells (protein)
chain: MTLRGAVFDLDGVLALPAVFGVLGRTEEALALPRGLLNDAFQKGGPEGATTRLMKGEITLSQWIPLMEENCRKCSETAKVCLPKNFSIKEIFDKAISARKINRPMLQAALMLRKKGFTTAILTNTWLDDRAERDGLAQLMCELKMHFDFLIESCQVGMVKPEPQIYKFLLDTLKASPSEVVFLDDIGANLKPARDLGMVTILVQDTDTALKELEKVTGIQLLNTPAPLPTSCNPSDMSHGYVTVKPRVRLHFVELGWPAVCLCHGFPESWYSWRYQIPALAQAGYRVLAMDMKGYGESSAPPEIEEYCMEVLCKEMVTFLDKLGLSQAVFIGHDWGGMLVWYMALFYPERVRAVASLNTPFIPANPNMSPLESIKANPVFDYQLYFQEPGVAEAELEQNLSRTFKSLFRASDESVLSMHKVCEAGGLFVNSPEEPSLSRMVTEEEIQFYVQQFKKSGFRGPLNWYRNMERNWKWACKSLGRKILIPALMVTAEKDFVLVPQMSQHMEDWIPHLKRGHIEDCGHWTQMDKPTEVNQILIKWLDSDARNPPVVSKM
For the molecule B1, in the series with human sEH [5], the “inhibition of activity by heat (heat lability)” value stood at 100%.

As usually defined, the inhibition is the drop in the measured response relative to a control, in per cent.
